Measured values reported in PubChem BioAssay AID1963833 (Molecular Pharmacology Branch, DTP, NCI, 2024).
pIC50: −log10 of the molar value.

System: 883617-216-R-J1-PDC complex spheroid viability
Experiment: Anticancer human tumor 883617-216-R-J1-PDC patient-derived bladder carcinoma cell line growth inhibition [POLQ]
Conditions: for pIC50: curve of first compound; for viability, T/C: stronger effect = lower value
Summary of the method: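 PDC + HUVEC + MSC complex spheroids; POLQ inhibitors ± partner drugs; top conc. at/near clinical Cmax, else 10 microM (SN-38 1 microM), half-log dilutions; 37 degrees C, 5% CO2.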

[1] = second compound 0.0316 µM, first compound 0.0316 µM
[2] = second compound 0.0316 µM, first compound 0.1 µM
[3] = second compound 0.0316 µM, first compound 0.316 µM
[4] = second compound 0.0316 µM, first compound 1 µM
[5] = second compound 0.0316 µM, first compound 3.16 µM
[6] = second compound 0.0316 µM, first compound 10 µM
[7] = second compound 0.1 µM, first compound 0.0316 µM
[8] = second compound 0.1 µM, first compound 0.1 µM
[9] = second compound 0.1 µM, first compound 0.316 µM
[10] = second compound 0.1 µM, first compound 1 µM
[11] = second compound 0.1 µM, first compound 3.16 µM
[12] = second compound 0.1 µM, first compound 10 µM
[13] = second compound 0.316 µM, first compound 0.0316 µM
[14] = second compound 0.316 µM, first compound 0.1 µM
[15] = second compound 0.316 µM, first compound 0.316 µM
[16] = second compound 0.316 µM, first compound 1 µM
[17] = second compound 0.316 µM, first compound 3.16 µM
[18] = second compound 0.316 µM, first compound 10 µM
[19] = second compound 1 µM, first compound 0.0316 µM
[20] = second compound 1 µM, first compound 0.1 µM
[21] = second compound 1 µM, first compound 0.316 µM
[22] = second compound 1 µM, first compound 1 µM
[23] = second compound 1 µM, first compound 3.16 µM
[24] = second compound 1 µM, first compound 10 µM
[25] = second compound 3.16 µM, first compound 0.0316 µM
[26] = second compound 3.16 µM, first compound 0.1 µM
[27] = second compound 3.16 µM, first compound 0.316 µM
[28] = second compound 3.16 µM, first compound 1 µM
[29] = second compound 3.16 µM, first compound 3.16 µM
[30] = second compound 3.16 µM, first compound 10 µM
[31] = second compound 10 µM, first compound 0.0316 µM
[32] = second compound 10 µM, first compound 0.1 µM
[33] = second compound 10 µM, first compound 0.316 µM
[34] = second compound 10 µM, first compound 1 µM
[35] = second compound 10 µM, first compound 3.16 µM
[36] = second compound 10 µM, first compound 10 µM
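Also: spheroids exposed to compounds for seven days before readout.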
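For viability, T/C in this document: 100% = DMSO vehicle control viability.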

`Nc1ccn(C2OC(CO)C(O)C2(F)F)c(=O)n1` (stereo not drawn) + Cc1cccc(N(C)C(=O)C2C(O)CCN2c2nc(C)cc(C(F)(F)F)c2C#N)c1 gave a pIC50 (second compound 0.0316 µM) greater than 7.50, a pIC50 (second compound 0.1 µM) greater than 7.50 and a pIC50 (second compound 0.316 µM) greater than 7.50. It also gave a pIC50 (second compound 1 µM) greater than 7.50, a pIC50 (second compound 3.16 µM) greater than 7.50 and a pIC50 (second compound 10 µM) greater than 7.50. It also gave a viability, T/C [1] of 35.8%, a viability, T/C [2] of 33.2% and a viability, T/C [3] of 41.2%. For the same molecule, the viability, T/C [4] was 41.4%, the viability, T/C [5] was 33.5% and the viability, T/C [6] was 31.1%. For the same molecule, the viability, T/C [7] was 28%, the viability, T/C [8] was 45.6% and the viability, T/C [9] was 31.8%. It also gave a viability, T/C [10] of 38.2%, a viability, T/C [11] of 36.9% and a viability, T/C [12] of 24.6%. The viability, T/C [13] was 30.1%, the viability, T/C [14] was 31.9% and the viability, T/C [15] was 34%. The viability, T/C [16] was 38.5%, the viability, T/C [17] was 31.6% and the viability, T/C [18] was 35.5%. The viability, T/C [19] was 32.5%, the viability, T/C [20] was 27.6% and the viability, T/C [21] was 33.8%. For the same molecule, the viability, T/C [22] was 36.5%, the viability, T/C [23] was 39.3% and the viability, T/C [24] was 34.7%. The viability, T/C [25] was 35%, the viability, T/C [26] was 28.4% and the viability, T/C [27] was 41.2%. The viability, T/C [28] was 39.8%, the viability, T/C [29] was 40.9% and the viability, T/C [30] was 27.4%. For the same molecule, the viability, T/C [31] was 37.9%, the viability, T/C [32] was 35.5% and the viability, T/C [33] was 39.2%. For the same molecule, the viability, T/C [34] was 39.2%, the viability, T/C [35] was 39.1% and the viability, T/C [36] was 31.7%.

Work on `Nc1ccn(C2OC(CO)C(O)C2(F)F)c(=O)n1` (stereo not drawn) + Nc1ccc(C#CCN(C(=O)Cc2ncc(C(F)(F)F)cc2C(F)(F)F)c2ccc(F)cc2)nn1 yielded a pIC50 (second compound 0.0316 µM) greater than 7.50, a pIC50 (second compound 0.1 µM) greater than 7.50 and a pIC50 (second compound 0.316 µM) greater than 7.50. For the same molecule, the pIC50 (second compound 1 µM) was greater than 7.50, the pIC50 (second compound 3.16 µM) was greater than 7.50 and the pIC50 (second compound 10 µM) was greater than 7.50. For the same molecule, the viability, T/C [1] was 33.7%, the viability, T/C [2] was 33.4% and the viability, T/C [3] was 39.8%. For the same molecule, the viability, T/C [4] was 33.9%, the viability, T/C [5] was 56% and the viability, T/C [6] was 37.3%. It also gave a viability, T/C [7] of 34.5%, a viability, T/C [8] of 35.1% and a viability, T/C [9] of 38.2%. The viability, T/C [10] was 32.4%, the viability, T/C [11] was 37.5% and the viability, T/C [12] was 47.1%. The viability, T/C [13] was 32.5%, the viability, T/C [14] was 38.7% and the viability, T/C [15] was 39.3%. For the same molecule, the viability, T/C [16] was 35.9%, the viability, T/C [17] was 35.1% and the viability, T/C [18] was 34.3%. It also gave a viability, T/C [19] of 43.1%, a viability, T/C [20] of 39.9% and a viability, T/C [21] of 45.2%. It also gave a viability, T/C [22] of 39.8%, a viability, T/C [23] of 43.3% and a viability, T/C [24] of 37.6%. The viability, T/C [25] was 44.7%, the viability, T/C [26] was 34.4% and the viability, T/C [27] was 35.4%. It also gave a viability, T/C [28] of 60.7%, a viability, T/C [29] of 46.2% and a viability, T/C [30] of 35.6%. For the same molecule, the viability, T/C [31] was 62.4%, the viability, T/C [32] was 28.1% and the viability, T/C [33] was 34.5%. For the same molecule, the viability, T/C [34] was 47.7%, the viability, T/C [35] was 50.4% and the viability, T/C [36] was 37.6%.

With `CC[C@@]1(O)C(=O)OCc2c1cc1n(c2=O)Cc2cc3c(CN(C)C)c(O)ccc3nc2-1` + Nc1ccc(C#CCN(C(=O)Cc2ncc(C(F)(F)F)cc2C(F)(F)F)c2ccc(F)cc2)nn1 the pIC50 (second compound 0.0316 µM) was less than 7.00, the pIC50 (second compound 0.1 µM) was less than 7.00 and the pIC50 (second compound 0.316 µM) was less than 7.00. The pIC50 (second compound 1 µM) was less than 7.00, the pIC50 (second compound 3.16 µM) was less than 7.00 and the pIC50 (second compound 10 µM) was less than 7.00. The viability, T/C (second compound 0.0316 µM, first compound 0.000316 µM) was 104%, the viability, T/C (second compound 0.0316 µM, first compound 0.001 µM) was 99.7% and the viability, T/C (second compound 0.0316 µM, first compound 0.00316 µM) was 99.6%. It also gave a viability, T/C (second compound 0.0316 µM, first compound 0.01 µM) of 84.8%, a viability, T/C [1] of 84.5% and a viability, T/C [2] of 66.1%. The viability, T/C (second compound 0.1 µM, first compound 0.000316 µM) was 107%, the viability, T/C (second compound 0.1 µM, first compound 0.001 µM) was 99.6% and the viability, T/C (second compound 0.1 µM, first compound 0.00316 µM) was 93.3%. For the same molecule, the viability, T/C (second compound 0.1 µM, first compound 0.01 µM) was 101%, the viability, T/C [7] was 85.7% and the viability, T/C [8] was 68.1%. The viability, T/C (second compound 0.316 µM, first compound 0.000316 µM) was 97.3%, the viability, T/C (second compound 0.316 µM, first compound 0.001 µM) was 101% and the viability, T/C (second compound 0.316 µM, first compound 0.00316 µM) was 89.6%. The viability, T/C (second compound 0.316 µM, first compound 0.01 µM) was 81.1%, the viability, T/C [13] was 87.3% and the viability, T/C [14] was 80.9%. The viability, T/C (second compound 1 µM, first compound 0.000316 µM) was 90.2%, the viability, T/C (second compound 1 µM, first compound 0.001 µM) was 104% and the viability, T/C (second compound 1 µM, first compound 0.00316 µM) was 101%. For the same molecule, the viability, T/C (second compound 1 µM, first compound 0.01 µM) was 100%, the viability, T/C [19] was 81.5% and the viability, T/C [20] was 69.7%. The viability, T/C (second compound 3.16 µM, first compound 0.000316 µM) was 102%, the viability, T/C (second compound 3.16 µM, first compound 0.001 µM) was 99% and the viability, T/C (second compound 3.16 µM, first compound 0.00316 µM) was 126%. For the same molecule, the viability, T/C (second compound 3.16 µM, first compound 0.01 µM) was 102%, the viability, T/C [25] was 75.1% and the viability, T/C [26] was 76.6%. The viability, T/C (second compound 10 µM, first compound 0.000316 µM) was 122%, the viability, T/C (second compound 10 µM, first compound 0.001 µM) was 119% and the viability, T/C (second compound 10 µM, first compound 0.00316 µM) was 116%. The viability, T/C (second compound 10 µM, first compound 0.01 µM) was 95%, the viability, T/C [31] was 91.5% and the viability, T/C [32] was 91%.

`C#Cc1c(F)ccc2cc(O)cc(-c3ncc4c(N5CC6CCC(C5)N6)nc(OCC56CCCN5CC(F)C6)nc4c3F)c12` (stereo not drawn) + Cc1cccc(N(C)C(=O)C2C(O)CCN2c2nc(C)cc(C(F)(F)F)c2C#N)c1 gave a pIC50 (second compound 0.0316 µM) of less than 5.00, a pIC50 (second compound 0.1 µM) of less than 5.00 and a pIC50 (second compound 0.316 µM) of less than 5.00. It also gave a pIC50 (second compound 1 µM) of less than 5.00, a pIC50 (second compound 3.16 µM) of less than 5.00 and a pIC50 (second compound 10 µM) of less than 5.00. The viability, T/C [1] was 98.1%, the viability, T/C [2] was 109% and the viability, T/C [3] was 97.7%. It also gave a viability, T/C [4] of 95.1%, a viability, T/C [5] of 86.8% and a viability, T/C [6] of 70.1%. The viability, T/C [7] was 98%, the viability, T/C [8] was 104% and the viability, T/C [9] was 109%. For the same molecule, the viability, T/C [10] was 89.8%, the viability, T/C [11] was 86.2% and the viability, T/C [12] was 81.4%. The viability, T/C [13] was 108%, the viability, T/C [14] was 101% and the viability, T/C [15] was 110%. It also gave a viability, T/C [16] of 100%, a viability, T/C [17] of 80.6% and a viability, T/C [18] of 77.6%. For the same molecule, the viability, T/C [19] was 104%, the viability, T/C [20] was 99% and the viability, T/C [21] was 106%. The viability, T/C [22] was 89.9%, the viability, T/C [23] was 86.5% and the viability, T/C [24] was 72.2%. It also gave a viability, T/C [25] of 103%, a viability, T/C [26] of 101% and a viability, T/C [27] of 97.8%. For the same molecule, the viability, T/C [28] was 94.5%, the viability, T/C [29] was 81.5% and the viability, T/C [30] was 78%. It also gave a viability, T/C [31] of 115%, a viability, T/C [32] of 102% and a viability, T/C [33] of 104%. It also gave a viability, T/C [34] of 106%, a viability, T/C [35] of 87.7% and a viability, T/C [36] of 76.2%.
